Test results: patent publication US7662819B2, “Pteridinone derivatives for use as stearoyl CoA desaturase inhibitors” (Gilead Palo Alto, Inc., priority 2007, dated 2010)

target: T1, stearoyl-CoA desaturase (SCD) (Rattus norvegicus, UniProt P07308); assay: SCD assay in rat liver microsomes ([3H]stearoyl CoA desaturation, adapted from Talamo and Bloch); format: biochemical; conditions: rat liver microsomes 0.2 mg/ml assay final, 30 min preincubation, 45 min reaction, room temperature
T1 construct: from tissue; host or cells: liver microsomes of male Sprague Dawley rats, with SCD induced by a carbohydrate-rich diet after fasting/feeding cycles
T1 sequence (P07308 1-358): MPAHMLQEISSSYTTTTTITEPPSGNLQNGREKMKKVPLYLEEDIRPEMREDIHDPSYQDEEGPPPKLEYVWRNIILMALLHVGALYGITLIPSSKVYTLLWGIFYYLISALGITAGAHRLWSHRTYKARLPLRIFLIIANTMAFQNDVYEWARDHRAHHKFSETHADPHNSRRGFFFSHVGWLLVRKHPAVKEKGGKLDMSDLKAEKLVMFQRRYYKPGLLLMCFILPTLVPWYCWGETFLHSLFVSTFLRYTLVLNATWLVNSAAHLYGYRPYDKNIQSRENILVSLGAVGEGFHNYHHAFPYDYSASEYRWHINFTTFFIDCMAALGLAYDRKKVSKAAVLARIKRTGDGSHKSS
Description: The identification of compounds of the invention as SCD inhibitors was readily accomplished using the SCD enzyme and microsomal assay procedure described in Talamo and Bloch (1969) Analytical Biochemistry 29:300-304.
The rat liver microsomes were collected according to the procedure described in Ozols (1990) Methods Enzm, 182:225.
Male Spraque Dawley Rats were placed on regimented fasting protocol for one week to stimulate SCD enzymatic activity. 48-hour periods were alternated between feeding and fasting to induce and down-regulate SCD activity with SCD activity being induced via carbohydrate rich diet prior to liver perfusion and collection.
The rats were anesthetized with Isoflurane inhalation anesthetic, the liver perfused with cold phosphate buffered saline (PBS), weighed, and chilled in cold homogenization buffer (250 mM sucrose, 10 mM Tris, 1 mM EDTA, pH 7.6.
The livers were finely minced and placed in homogenization tube. 40 mL of homogenization buffer was added to the homogenization tube and the liver homogenized and centrifuged in a pre-chilled […] for 10 min at 4° C.
Following centrifugation, the supernatant was collected and the pellet removed and discarded. The supernatant was centrifuge at 10,000 G for 35 minutes. Following centrifugation, the supernatant was collect and the pellet discarded. The supernatant was then centrifuged in a pre-chilled 45-Ti rotor at 130,000 G (41,000 RPM) for 90 minutes at 4° C.
The supernatant was then aspirated off and the collected microsomal pellet washed in 25 mL of Glycerol PBS (1×PBS 7.4, 20% Glycerol) and resuspended in 4-5 volumes of Glycerol PBS.
The protein concentration of the microsomal preparation was determined by BCA assay (Pierce) and the microsomes were aliquoted and stored at −80° C.
Biobeads were ground to a smaller size in a mortar and pestle and resuspended in 3.6% TCA. The beads were then filtered through […] mesh.
SCD was determined in the desaturase assay buffer. This assay buffer contained 0.1 M Tris buffer, pH 7.2, 2 mM NADH, 4.8 mM ATP, 0.5 mM CoA, 4.8 mM MgCl2, and 0.1% BSA.
The Procedure for the SCD Assay (Adapted from Talamo and Bloch (1969) Analytical Biochemistry 29:300-304)
1 μl of each compound of Formula I was added to an assay plate by a low volume (0.5-10 μL) multichannel pipette. A DMSO control was also prepared. The microsomes were quickly thawed and added to assay buffer so that a concentration of 0.4 mg/ml was achieved (0.2 mg/ml assay final). 50 μl of the microsome suspension in assay buffer was then added into each well in the compound assay plate, the plate was covered, and the microsomes preincubated with the compounds for 30 minutes on the orbital shaker, 50-75 rpm, at room temperature.
After preincubation, the reaction was initiated by the addition of 50 μl of substrate solution (20 μM Stearoyl CoA, [3H]Stearoyl CoA, 74 nCi) to the preincubated microsomes/compound suspensions in MilliQ (Millipore) H2O. The reaction mixtures were then incubated for 45 minutes on the orbital shaker at 50-75 rpm at room temperature.
The reaction was terminated by the addition of 10 μl of 21% […] (TCA) to the reaction mixture followed incubation on the orbital shaker for 30 minutes at 50-75 rpm at room temperature followed by centrifugation for 5 minutes at 3700 rpm.
50 μl of a 6% Bio-Bead suspension in H2O was added to the reaction mixture and the assay plate was sealed. The Bio-Bead mixture was incubated on the orbital shaker for 1 hour, 100-150 rpm at room temperature, and then the mixture was centrifuged at 2000 g for 5 minutes to pellet the Bio-Beads.
25 μl of the supernatant was harvested from each well and transferred to a detection plate. 100 μl of OptiPhase SuperMix scinitillation cocktail (containing sufficient NaOH to neutralize the TCA) was added and the solutions mixed by vigorous shaking (300-400 rpm) for 5 minutes at room temperature. […]

| SMILES | IC50 |
| --- | --- |
| CC(=O)NCCn1c(=O)cnc2cnc(NCc3cccc(Cl)c3)nc21 [Compound 25, N-[2-(2-{[(3-chlorophenyl)methyl]amino}-7-oxo-8-hydropteridin-8-yl)ethyl]acetamide] | 10 µM |
| CC(=O)NCCn1c(=O)c(-c2ccc(Cl)cc2)nc2cnc(NCc3cccc(Cl)c3)nc21 [Compound 26, N-[2-(6-(4-chlorophenyl)-2-{[(3-chlorophenyl)methyl]amino}-7-oxo-8-hydropteridin-8-yl)ethyl]acetamide] | 7.8 µM |
| CC(=O)NCCn1c(=O)c(-c2cccnc2)nc2cnc(NCc3cccc(Cl)c3)nc21 [Compound 27, N-[2-(2-{[(3-chlorophenyl)methyl]amino}-7-oxo-6-(3-pyridyl)-8-hydropteridin-8-yl)ethyl]acetamide] | 9.1 µM |
| CC(=O)NCCn1c(=O)cnc2cnc(NCc3ccc(Cl)cc3)nc21 [Compound 28, N-[2-(2-{[(4-chlorophenyl)methyl]amino}-7-oxo-8-hydropteridin-8-yl)ethyl]acetamide] | 21.9 µM |
| COc1ccc(-c2nc3cnc(NCc4ccc(Cl)c(Cl)c4)nc3n(CCNC(=O)c3ccc(F)cc3)c2=O)cc1 [Compound 29, N-[2-(2-{[(3,4-dichlorophenyl)methyl]amino}-6-(4-methoxyphenyl)-7-oxo(8-hydropteridin-8-yl))ethyl](4-fluorophenyl)carboxamide] | 0.43 µM |
| COc1ccc(-c2nc3cnc(NCc4ccc(Cl)c(Cl)c4)nc3n(CCNC(=O)c3cccc(C)c3)c2=O)cc1 [Compound 30, N-[2-(2-{[(3,4-dichlorophenyl)methyl]amino}-6-(4-methoxyphenyl)-7-oxo(8-hydropteridin-8-yl))ethyl](3-methylphenyl)carboxamide] | 3.27 µM |
| COc1ccc(-c2nc3cnc(NCc4ccc(Cl)c(Cl)c4)nc3n(CCNC(=O)c3ccco3)c2=O)cc1 [Compound 31, N-[2-(2-{[(3,4-dichlorophenyl)methyl]amino}-6-(4-methoxyphenyl)-7-oxo(8-hydropteridin-8-yl))ethyl]-2-furylcarboxamide] | 2.26 µM |
| CC(=O)NCCn1c(=O)c(-c2ccc(Cl)cc2)nc2cnc(NCc3ccc(Cl)c(Cl)c3)nc21 [Compound 32, N-[2-(2-{[(3,4-dichlorophenyl)methyl]amino}-6-(4-chlorophenyl)-7-oxo-8-hydropteridin-8-yl)ethyl]acetamide] | 1.89 µM |
| CC(=O)NCCn1c(=O)c(-c2ccc(Cl)cc2)nc2cnc(NCc3ccc(F)cc3)nc21 [Compound 33, N-[2-(6-(4-chlorophenyl)-2-{[(4-fluorophenyl)methyl]amino}-7-oxo-8-hydropteridin-8-yl)ethyl]acetamide] | 1.8 µM |
| O=C(NCCn1c(=O)cnc2cnc(NCc3ccc(Cl)c(Cl)c3)nc21)c1ccccc1 [Compound 34, N-[2-(2-{[(3,4-dichlorophenyl)methyl]amino}-7-oxo(8-hydropteridin-8-yl))ethyl]benzamide] | 2.72 µM |
| O=C(NCCn1c(=O)cnc2cnc(NCc3ccc(Cl)c(Cl)c3)nc21)c1ccsc1 [Compound 35, N-[2-(2-{[(3,4-dichlorophenyl)methyl]amino}-7-oxo(8-hydropteridin-8-yl))ethyl]-3-thienylcarboxamide] | 6.12 µM |
| O=C(NCCn1c(=O)c(-c2cccnc2)nc2cnc(NCc3ccc(Cl)c(Cl)c3)nc21)c1ccccc1 [Compound 36, N-[2-(2-{[(3,4-dichlorophenyl)methyl]amino}-7-oxo-6-(3-pyridyl)(8-hydropteridin-8-yl))ethyl]benzamide] | 4.06 µM |
| O=C(NCCn1c(=O)c(-c2cccnc2)nc2cnc(NCc3ccc(Cl)c(Cl)c3)nc21)c1ccsc1 [Compound 37, N-[2-(2-{[(3,4-dichlorophenyl)methyl]amino}-7-oxo-6-(3-pyridyl)(8-hydropteridin-8-yl))ethyl]-3-thienylcarboxamide] | 5.01 µM |
| O=C(NCCn1c(=O)c(-c2cccnc2)nc2cnc(NCc3ccc(Cl)c(Cl)c3)nc21)c1ccc(F)cc1 [Compound 38, N-[2-(2-{[(3,4-dichlorophenyl)methyl]amino}-7-oxo-6-(3-pyridyl)(8-hydropteridin-8-yl))ethyl](4-fluorophenyl)carboxamide] | 1.18 µM |
| COc1ccc(-c2nc3cnc(NCc4ccc(Cl)c(Cl)c4)nc3n(CCNC(=O)c3ccncc3)c2=O)cc1 [Compound 39, N-[2-(2-{[(3,4-dichlorophenyl)methyl]amino}-6-(4-methoxyphenyl)-7-oxo(8-hydropteridin-8-yl))ethyl]-4-pyridylcarboxamide] | 2.8 µM |
| C/C=C/C(=O)NCCn1c(=O)c(-c2ccc(OC)cc2)nc2cnc(NCc3ccc(Cl)c(Cl)c3)nc21 [Compound 40, (2E)—N-[2-(2-{[(3,4-dichlorophenyl)methyl]amino}-6-(4-methoxyphenyl)-7-oxo(8-hydropteridin-8-yl))ethyl]but-2-enamide] | 0.47 µM |
| COc1ccc(-c2nc3cnc(NCc4ccc(Cl)c(Cl)c4)nc3n(CCNC=O)c2=O)cc1 [Compound 41, N-[2-(2-{[(3,4-dichlorophenyl)methyl]amino}-6-(4-methoxyphenyl)-7-oxo-8-hydropteridin-8-yl)ethyl]carboxamide] | 0.26 µM |
| COc1ccc(-c2nc3cnc(NCc4ccc(Cl)c(Cl)c4)nc3n(CCNC(=O)c3cccc(F)c3)c2=O)cc1 [Compound 42, N-[2-(2-{[(3,4-dichlorophenyl)methyl]amino}-6-(4-methoxyphenyl)-7-oxo(8-hydropteridin-8-yl))ethyl](3-fluorophenyl)carboxamide] | 2.25 µM |
